Here are results for one compound from patent US7981936B2, “Crystalline ACAT inhibitor” (Graceway Pharmaceuticals, LLC, priority 2005, dated 2011).

The structures appear in SMILES notation.

By melting point is commonly meant the temperature, or range, at which the solid turns liquid. In the case of `CC(C)c1cccc(C(C)C)c1NC(=O)CC(=O)N(Cc1ccccc1)C(C)C` [Form A polymorph, N-benzyl-N′-(2,6-diisopropyl-phenyl)-N-isopropyl-malonamide], the melting point was found to be 102.3 °C.
